# US20100016285A1, “HETEROCYCLIDENE-N-(ARYL) ACETAMIDE DERIVATIVE” (MOCHIDA PHARMACEUTICAL CO., LTD., priority 2007, published 2010)
# Read-outs that look alike come from different tables or passages of the source.
# Key:
# human TRPV1 [1] = target: T1, human TRPV1 (Homo sapiens, UniProt Q8NER1); assay: Capsaicin (10 nmol/L)-induced Ca influx in transformed CHO cells, FDSS-6000 (b-2), IC50; format: cell-based
# T1 construct: expressed in transfected cells; host or cells: CHO-K1 cells, pCAGGS vector, clones selected by limiting dilution
# Source text: (§1) (1) Measurement of Capsaicin-Induced Ca Influx in a Transformed CHO Cell Line Expressing Human TRPV1
# (§2) (a) Establishment of a Transformed CHO Cell Line Expressing Human and Rat TRPV1
# (§3) Human and rat vanilloid receptor 1 (hTRPV1 and rTRPV1) cDNA was cloned from human brain and rat dorsal root ganglion, respectively. The cloned TRPV1 cDNA was incorporated in a pCAGGS vector. The vector was introduced to a CHO-K1 cell line, thus performing transformation. Clones obtained by limiting dilution were stimulated with capsaicin. Clones with a high responsiveness were selected using an increase in the Ca concentration as an indicator. The selected clones were used for the following experiment.
# (b-2) Measurement of Ca Influx using FDSS-6000
# The transformed CHO cells expressing human or rat TRPV1 were inoculated in a 96-well plate (with black walls and transparent bottoms, manufactured by Greiner) at a density of 40,000 cells per well. The cells were cultured at 37° C. in 5% CO2 atmosphere for one night. A loading solution of FLIPR Calcium 3 assay kit (manufactured by Molecular Devices Corporation) containing 2.5 mmol/L of probenecid was then added to each of the wells in the same amount as the culture medium, and the cells were cultured at 37° C. for 60 minutes. For three minutes after the cells were stimulated with capsaicin (10 nmol/L), the change of the intracellular Ca concentration was measured using FDSS-6000 (λex: 480 nm, λem: 540 nm, manufactured by Hamamatsu Photonics K.K.). The integrated values of the increase rate of the intracellular Ca concentration were calculated for a group treated with the compounds of the present invention and a group treated with a vehicle. Then, the concentration of the compound of the present invention was calculated that inhibits 50% of the intracellular Ca concentration increase induced by capsaicin (IC50). Using this value as the index, inhibitory effects of the test compounds were compared. In addition, when IC50 value in human TRPV1 was less than 100 nmol/L, it was shown as A in Table 1C.
# [2] = cited from earlier work
# human TRPV1 [3] = target: T1, human TRPV1; assay: Capsaicin-induced Ca influx in transformed CHO cells, FDSS-6000 (b-1), A2 value; format: cell-based; conditions: concentration shifting the capsaicin concentration-reaction curve two times rightward; CHO cells expressing TRPV1
# Source text: as §1, §2, §3
# (b-1) Measurement of Ca Influx using FDSS-6000
# The transformed CHO cells expressing human or rat TRPV1 were seeded in a 96-well plate (with black walls and transparent bottoms, manufactured by Greiner) at a density of 40,000 cells per well. The cells were cultured at 37° C. in 5% CO2 atmosphere for one night. A loading solution of FLIPR Calcium 3 assay kit (manufactured by Molecular Devices Corporation) containing 2.5 mmol/L of probenecid was then added to each of the wells in the same amount as the culture medium, and the cells were cultured at 37° C. for 60 minutes. For three minutes after the cells were stimulated with capsaicin (1 nmol/L to 1 μmol/L), the change of the intracellular Ca concentration was measured using FDSS-6000 (λex: 480 nm, λem: […], manufactured by Hamamatsu Photonics K.K.). The integrated values of the increase rate of the intracellular Ca concentration were calculated for a group treated with the compounds of the present invention and a group treated with a vehicle, thus allowing capsaicin concentration-reaction curves to be obtained. A concentration (A2 value) of each of the compounds of the present invention, at which the capsaicin concentration-reaction curve obtained when the cells were treated with the vehicle was shifted two times rightward, was calculated. The inhibitory effects of the test compounds were compared using this value as an indicator.
# [4] = Effects on rectal temperature (8-1), oral administration to rats; format: in vivo, rat; conditions: oral single doses of 3, 10 and 30 mg/kg; 30, 60 and 120 minutes; maximum absolute difference vs vehicle
# Method: (8-1) Effects on Rectal Temperature
# A test compound was orally administered to rats at single doses of 3, 10 and 30 mg/kg. Then rectal temperature was measured 30, 60 and 120 minutes after administration.
# Differences of the mean value between a group treated with test substance and a vehicle-treated group were calculated at all measuring points and, based on the maximum absolute value of differences, changes in rectal temperature were divided into the following three categories:
# −: the maximum value was less than 0.5 degree Celsius +: the maximum value was more than 0.5 degree but less than 1.0 degree Celsius ++: the maximum value was more than 1.0 degree Celsius
# T1 sequence (Q8NER1 whole entry): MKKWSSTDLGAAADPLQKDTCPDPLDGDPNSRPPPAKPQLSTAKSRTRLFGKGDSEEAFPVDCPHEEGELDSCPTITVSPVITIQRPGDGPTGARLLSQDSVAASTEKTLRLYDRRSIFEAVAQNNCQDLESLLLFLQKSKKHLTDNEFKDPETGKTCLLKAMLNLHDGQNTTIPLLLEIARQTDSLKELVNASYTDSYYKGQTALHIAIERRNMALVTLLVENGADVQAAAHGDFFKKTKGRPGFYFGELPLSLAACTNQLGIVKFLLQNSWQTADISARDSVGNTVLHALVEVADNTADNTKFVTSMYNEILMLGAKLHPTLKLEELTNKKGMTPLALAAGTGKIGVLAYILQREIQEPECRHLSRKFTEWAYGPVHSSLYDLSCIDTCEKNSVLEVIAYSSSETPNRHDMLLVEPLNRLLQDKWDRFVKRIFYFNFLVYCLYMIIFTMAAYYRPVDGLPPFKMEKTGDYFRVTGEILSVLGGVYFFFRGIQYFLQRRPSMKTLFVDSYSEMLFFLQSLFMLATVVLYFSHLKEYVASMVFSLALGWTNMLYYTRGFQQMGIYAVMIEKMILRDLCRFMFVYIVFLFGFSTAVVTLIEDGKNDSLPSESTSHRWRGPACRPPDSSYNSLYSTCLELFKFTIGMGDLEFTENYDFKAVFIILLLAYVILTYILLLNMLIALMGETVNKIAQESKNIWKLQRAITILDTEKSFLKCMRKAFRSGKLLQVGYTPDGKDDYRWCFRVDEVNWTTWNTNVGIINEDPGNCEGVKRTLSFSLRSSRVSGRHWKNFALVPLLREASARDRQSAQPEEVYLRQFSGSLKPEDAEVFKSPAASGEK
SMILES,IC50 (human TRPV1 [1]) [nM],A2 value (human TRPV1 [3]),Change in rectal temperature in rats [4],other results
"CCN1C(=O)NCc2c(NC(=O)/C=C3\CCCOc4cc(C(F)(F)F)ccc43)cccc21 [Example 306, (E)-2-(3,4-dihydro-B-trifluoromethyl-1-benzoxepin-5(2H)-ylidene)-N-(3,4-dihydro-1-ethyl-2(1H)-quinazolinone-5-yl)acetamide]",< 100,,,
"CN1C(=O)NCc2c(NC(=O)/C=C3\CCCOc4cc(C(F)(F)F)ccc43)cccc21 [Example 302, (E)-2-(3,4-dihydro-8-trifluoromethyl-1-benzoxepin-5(2H)-ylidene)-N-(3,4-dihydro-1-methyl-2(1H)-quinazolinone-5-yl)acetamide]",< 100,,,
"CCN1C(=O)NCc2c(NC(=O)/C=C3\CC(C)(C)Oc4cc(C(F)(F)F)ccc43)cccc21 [Example 309, (E)-2-(2,2-dimethyl-7-trifluoromethylchroman-4-ylidene)-N-(3,4-dihydro-1-ethyl-2(1H)-quinazolinone-5-yl)acetamide]",< 100,,,
"O=C(Nc1ccc(C(F)(F)F)cn1)N1CCN(c2ncccc2C(F)(F)F)CC1 [Compound A, 4-(3-trifluoromethylpyridine-2-yl)-N-(5-trifuluoromethylpiridine-2-yl)-1-piperadinecarboxamide]",,,,"Change of rat rectal temperature ([2]; Oral, reference information (Non-Patent Document 4 or 5)): Increase^1); Change in rectal temperature in rats ([2]; from published information (Non-Patent Document 4 or 5)): increased^1)"
"CC1(C)N/C(=C\C(=O)Nc2ccc3c(c2)NC(=O)CC3)c2ccc(C(F)(F)F)cc2O1 [EXAMPLE 26, (Z)-2-(6-trifluoromethyl-3,3-dimethyl-4-oxa-3,4-dihydroisoquinolin-1(2H)-ylidene)-N-(3,4-dihydroquinolin-2(1H)-on-7-yl)acetamide]",,A (A2 value of less than 100 nM),− (the maximum value was less than 0.5 degree Celsius),
"CCN1C(=O)NCc2c(NC(=O)/C=C3\CC(COC)(COC)Oc4cc(C(F)(F)F)ccc43)cccc21 [Example 311, (E)-2-(2,2-bis(methoxymethyl)-7-trifluoromethylchroman-4-ylidene)-N-(3,4-dihydro-1-ethyl-2(1H)-quinazolinone-5-yl)acetamide]",< 100,,,
"CCN1C(=O)NCc2c(NC(=O)/C=C3\CCOc4cc(C(F)(F)F)ccc43)cccc21 [Example 308, (E)-2-(7-trifluoromethylchroman-4-ylidene)-N-(3,4-dihydro-1-ethyl-2(1H)-quinazolinone-5-yl)acetamide]",< 100,,,
"CC1(C)Nc2ccc(NC(=O)/C=C3\CCCOc4cc(C(F)(F)F)ccc43)cc2NC1=O [EXAMPLE 10, (E)-2-(8-trifluoromethyl-3,4-dihydrobenzo[b]oxepin-5(2H)-ylidene)-N-(3,3-dimethyl-3,4-dihydro-2(1H)-quinoxalinon-7-yl)acetamide]",,A (A2 value of less than 100 nM),+ (the maximum value was more than 0.5 degree but less than 1.0 degree Celsius),
"CN1C(=O)NCc2c(NC(=O)/C=C3\CCOCc4cc(C(F)(F)F)ccc43)cccc21 [Example 303, (E)-2-(3,4-dihydro-8-trifluoromethyl-2-benzoxepin-5(1H)-ylidene)-N-(3,4-dihydro-1-methyl-2(1H)-quinazolinone-5-yl)acetamide]",< 100,,,
"CCN1C(=O)NCc2c(NC(=O)/C=C3\CC(CC)(CC)Oc4cc(C(F)(F)F)ccc43)cccc21 [Example 310, (E)-2-(2,2-diethyl-7-trifluoromethylchroman-4-ylidene)-N-(3,4-dihydro-1-ethyl-2(1H)-quinazolinone-5-yl)acetamide]",< 100,,,
"O=C(/C=C1\CCCOc2cc(C(F)(F)F)ccc21)Nc1ccc2c(c1)NC(=O)N(CCO)C2 [EXAMPLE 15, (E)-2-(8-trifluoromethyl-3,4-dihydrobenzo[b]oxepin-5(2H)-ylidene)-N-(3-(2-hydroxyethyl)-3,4-dihydro-2(1H)-quinazolinon-7-yl)acetamide]",,A (A2 value of less than 100 nM),− (the maximum value was less than 0.5 degree Celsius),
"O=C(/C=C1\CCCOc2cc(C(F)(F)F)ccc21)Nc1ccc2c(c1)NC(=O)C(N1CCOCC1)C2 (single isomer, unassigned) [EXAMPLE 35, (E)-2-(8-trifluoromethyl-3,4-dihydrobenzo[b]oxepin-5(2H)-ylidene)-N-(3-(4-morpholinyl)-3,4-dihydro-2(1H)-quinolinon-7-yl)acetamide]",,A (A2 value of less than 100 nM),− (the maximum value was less than 0.5 degree Celsius),
"CCN1C(=O)NCc2c(NC(=O)/C=C3\CCOCc4cc(C(F)(F)F)ccc43)cccc21 [Example 307, (E)-2-(3,4-dihydro-8-trifluoromethyl-2-benzoxepin-5(1H)-ylidene)-N-(3,4-dihydro-1-ethyl-2(1H)-quinazolinone-5-yl)acetamide]",< 100,,,
"CN1C(=O)NCc2c(NC(=O)/C=C3\NC(C)(C)Oc4cc(C(F)(F)F)ccc43)cccc21 [Example 313, (Z)-2-(2,3-dihydro-2,2-dimethyl-7-trifluoromethyl-4H-1,3-benzoxazin-4-ylidene)-N-(3,4-dihydro-1-methyl-2(1H)-quinazolinone-5-yl)acetamide]",< 100,,,
"O=C(/C=C1\CCOc2cc(C(F)(F)F)ccc21)Nc1ccc2c(c1)NC(=O)CC2 [EXAMPLE 23, (E)-2-(7-trifluoromethylchroman-4-ylidene)-N-(3,4-dihydroquinolin-2(1H)-on-7-yl)acetamide]",,A (A2 value of less than 100 nM),− (the maximum value was less than 0.5 degree Celsius),
"CN1C(=O)NCc2c(NC(=O)/C=C3\CCOc4cc(C(F)(F)F)ccc43)cccc21 [Example 304, (E)-2-(7-trifluoromethylchroman-4-ylidene)-N-(3,4-dihydro-1-methyl-2(1H)-quinazolinone-5-yl)acetamide]",< 100,,,
"O=C(/C=C1\CCCOc2cc(C(F)(F)F)ccc21)Nc1ccc2cc(CO)c(=O)[nH]c2c1 [Example 93, (E)-2-(8-trifluoromethyl-3,4-dihydrobenzo[b]oxepin-5(2H)-ylidene)-N-(3-hydroxymethyl-2(1H)-quinolinon-7-yl)acetamide]",,,− (the maximum value was less than 0.5 degree Celsius),
"O=C(/C=C1\CCCOc2cc(C(F)(F)F)ccc21)Nc1ccc2c(c1)NC(=O)NC2 [EXAMPLE 13, (E)-2-(8-trifluoromethyl-3,4-dihydrobenzo[b]oxepin-5(2H)-ylidene)-N-(3,4-dihydro-1H-quinazolin-2-on-7-yl)acetamide]",,A (A2 value of less than 100 nM),− (the maximum value was less than 0.5 degree Celsius),
"CN1C(=O)NCc2ccc(NC(=O)/C=C3\CCOc4cc(C(F)(F)F)ccc43)cc21 [Example 151, (E)-2-(7-trifluoromethyl-chroman-4-yliden)-N-(3,4-dihydro-1-methyl-2(1H)-quinazolinon-7-yl)acetamide]",,,− (the maximum value was less than 0.5 degree Celsius),
"CCN1C(=O)NCc2c(NC(=O)/C=C3\CC4(CCOCC4)Oc4cc(C(F)(F)F)ccc43)cccc21 [Example 312, (E)-2-(7-trifluoromethyl-spiro[chroman-2,4′-tetrahydropyran]-4-ylidene)-N-(3,4-dihydro-1-ethyl-2(1H)-quinazolinone-5-yl)acetamide]",< 100,,,
